Legend:
[1] = test system: vascular endothelial cells (HUVECs); test: CCK-8 cell viability assay on vascular endothelial cells; format: cell-based; details: 24 h and 48 h
Protocol: The range of drug concentrations at which ATO and TAC were friendly to vascular endothelial cell viability was determined at the cellular level.
The changes in the cell viability of vascular endothelial cells (HUVECs) under the action of ATO, TAC and rapamycin (RAP) at different concentrations for 24 h and 48 h were studied by CCK-8 cell viability assay, respectively.

[2] = test system: vascular smooth muscle cells (HASMCs); test: CCK-8 cell viability assay on vascular smooth muscle cells; format: cell-based; details: different concentrations, 24 h and 48 h
Protocol: The range of drug concentrations at which ATO and TAC were friendly to vascular smooth muscle cell viability was determined at the cellular level.
The changes in the cell viability of vascular smooth muscle cells (HASMCs) under the action of ATO, TAC and rapamycin (RAP) at different concentrations for 24 h and 48 h were studied by CCK-8 cell viability assay, respectively.

[3] = test system: IL-6, IL-10 and TNF-α gene expression in HUVECs; test: PCR of inflammatory factor gene expression in LPS-induced HUVECs; format: cell-based; details: 10 nM; HUVECs induced with LPS 1 μg/ml for 6 h
Protocol: The range of effective concentrations at which TAC inhibited the inflammatory response of vascular endothelial cells was verified at the cellular level.
After induction of HUVECs with LPS at a concentration of 1 μg/ml for 6 h, the inhibitory effects of TAC at different concentrations on the inflammatory response of HUVECs were detected by PCR.

[4] = Drug release from coated stents soaked in PBS solution in a shaker; format: physicochemical; details: at 1 d; release curve obtained by adjustment
Description: The process of testing the release properties of tacrolimus of the present invention comprises: soaking drug stents in a PBS solution, placing the stents in a shaker (shaking speed of 80 r/min), and taking out the stents at the corresponding time points (1 d, 7 d, 14 d, 21 d, and 28 d) (at least 3 stents for each time point), and testing the concentration of tacrolimus. The content of tacrolimus can be tested using the detection method in “Determination of Tacrolimus Tablets by HPLC” (Lv, Yongchao, Song, Yucai; Journal of Pharmaceutical Research 2013 Vol. 32, No. 4, page 1).
For the drug release properties of the present invention, the release process comprises: soaking drug stents in a PBS solution, placing the stents in a shaker (shaking speed of 100 r/min), and taking out 5 ml of the solution at the corresponding time points (1 d, 7 d, 14 d, 21 d, and 28 d) (at least 3 stents for each time point) for testing. The release of the drug arsenic trioxide is detected using the method disclosed in “Preparation and the Release Characteristic in vitro of Arsenic Trioxide Albumin Nanospheres” (Zhou, Jie, Zeng, Fuqing, Gao, Xiang, Xie, Shusheng, Wei, Shuli, Chinese Journal of New Drugs, pages 54-57).

SMILES	concentration with no significant effect on cell viability [1]	effect on the viability of vascular smooth muscle cells [2]	gene expression levels of cellular inflammatory factors IL-6, IL-10 and TNF-α [3]	tacrolimus released [4]
C=CC[C@@H]1/C=C(\C)C[C@H](C)C[C@H](OC)[C@H]2O[C@@](O)(C(=O)C(=O)N3CCCC[C@H]3C(=O)O[C@H](/C(C)=C/[C@@H]3CC[C@@H](O)[C@H](OC)C3)[C@H](C)[C@@H](O)CC1=O)[C@H](C)C[C@@H]2OC [TAC, tacrolimus]	≤ 50 nM	no significant inhibitory effect	effectively reduce	≥ 40%
CO[C@H]1C[C@@H]2CC[C@@H](C)[C@@](O)(O2)C(=O)C(=O)N2CCCC[C@H]2C(=O)O[C@H]([C@H](C)C[C@@H]2CC[C@@H](O)[C@H](OC)C2)CC(=O)[C@H](C)/C=C(\C)[C@@H](O)[C@@H](OC)C(=O)[C@H](C)C[C@H](C)/C=C/C=C/C=C/1C [RAP, rapamycin]	≤ 100 nM			
